Test results: patent US20100190982A1, “PROCESS FOR THE PREPARATION OF LAMIVUDINE FORM I” (priority 2007, published 2010)
Read-outs that look alike come from different tables or passages of the source.

Key:
[1] = as stated in U.S. Pat. No. 5,905,082, cited from earlier work
[2] = Drying of Form I crystals at 80° C. (under reduced pressure), polymorphic change; type: physicochemical; settings: for conversion of Form I to Form II on drying: drying at 80° C. (under reduced pressure)
Procedure: (§1) Therefore our endeavour was to prepare Lamivudine polymorph Form I, which is storage stable and remains unchanged during preparation of solid doses form. […] (under reduced pressure). Data has been generated up to 72 h drying at 80° C.
In the present invention, the Lamivudine polymorphic Form I obtained is 100% pure.

[3] = Stability testing at 60° C.; type: physicochemical; settings: two months
[4] = Grinding / milling of Form I crystals, polymorphic change; type: physicochemical
Procedure: as §1

[5] = Storage of Form I crystals, polymorphic change; type: physicochemical
Procedure: as §1

| conversion of Form I to Form II on drying [2] | polymorphic change on drying ([2]; up to 72 h drying at 80° C. (under reduced pressure)) | chemical degradation in stability testing [3] | polymorphic change in stability testing [3] | conversion to Form II on storage [5] | SMILES | relative stability of polymorphic form [1] | conversion of Form I to Form II on drying ([2]; listed as Lamivudine polymorphic Form I) | change in polymorphic form on grinding ([4]; grinded neat for 5-15 min at 20-30° C.) | conversion to Form II when milled/grinded ([4]; milled/grinded) | relative stability of polymorphic form ([1]; listed as Form I crystals) | conversion of Form I to Form II in pharmaceutical unit operations ([1]; milling/grinding) |
| --- | --- | --- | --- | --- | --- | --- | --- | --- | --- | --- | --- |
|  |  |  |  |  | Nc1ccn([C@@H]2CS[C@H](CO)O2)c(=O)n1 [Form II, Lamivudine] | more stable polymorphic form |  |  |  |  |  |
| do not convert to Form II | no polymorphic change has been observed | neither chemical degradation | nor polymorphic change was observed |  | Nc1ccn([C@@H]2CS[C@H](CO)O2)c(=O)n1 [Lamivudine Form I crystals prepared by the process of instan] |  | does not change into other polymorphic form | no change in polymorphic form has been observed |  |  |  |
| partially converted into Form II |  |  |  | partially converted into Form II | Nc1ccn([C@@H]2CS[C@H](CO)O2)c(=O)n1 [Lamivudine polymorphic Form I prepared by crystallisation fr] |  |  |  | partial conversion to Form II was observed | less stable | may cause conversion of Form I to Form II |
